In US9586963B2 (GENFIT, priority 2011, dated 2017) one finds EC50 and Emax data, which are given here for 26 compounds.

The target in the experiment is T1, Rev-Erb alpha (Homo sapiens, UniProt P20393).
T1 sequence (P20393 284-614 limits assumed): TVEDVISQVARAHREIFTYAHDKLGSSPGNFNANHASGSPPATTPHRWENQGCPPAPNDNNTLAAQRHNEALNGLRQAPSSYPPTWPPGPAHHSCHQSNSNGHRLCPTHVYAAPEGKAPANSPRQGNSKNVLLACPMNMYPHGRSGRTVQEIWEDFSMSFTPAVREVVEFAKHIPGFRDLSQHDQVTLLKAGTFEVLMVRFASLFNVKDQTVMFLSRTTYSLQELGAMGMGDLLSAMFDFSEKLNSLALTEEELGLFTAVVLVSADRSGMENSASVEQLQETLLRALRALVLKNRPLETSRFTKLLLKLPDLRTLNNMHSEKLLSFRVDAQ
Briefly: M2H (mammalian two-hybrid) cellular activation assay of Rev-Erb alpha. The note with it: M2H assay, HEK293 cells; for EC50: Gal4-Rev-Erb alpha / VP16-NCoR, luciferase reporter; for Emax: relative to DMSO, at the tested dose, read-out: TOP activation. The class given is cell-based. As for the experimental part:
In this system, Rev-Erb alpha or Rev-Erb beta is expressed as a fusion to the Gal4 DNA-binding domain and the cofactor NCoR is expressed as a fusion to the activation domain of the Herpes Simplex Virus tegument protein VP16. These fusion proteins were included in plasmids at a concentration of 1 μg/μL. The pBS-SK+ vector was added to the preparation to adjust the DNA quantity to a fixed value for each condition.
The transfection mix (Jet-PEI protocol, Polyplus transfection) comprised: • 3 mL of Jet PEI Mix (180 μL Jet-Pei and NaCl at 150 mM) and • 3 mL of the DNA Mix or of the DNA Mix control (wherein the Gal4-Rev-Erb alpha plasmid was replaced by a pGal4phi plasmid).
DNA Mix comprised 1.2 mL of DNA and 1.8 mL of NaCl at 150 mM with, in a T225 flask: • 90 ng of Gal4-Rev-Erb alpha, or 90 ng of Gal4-Rev-Erb beta, • 4500 ng of VP16-NCoR, • 27000 ng of Gal4-RE and • 13410 ng of pBS-SK+. Cells
HEK293 cells were cultured in DMEM (Invitrogen 41965) comprising 10% FBS, P/S, 1% glutamine, 1% pyruvate (Invitrogen 11360) and 1% amino acids (Invitrogen 11140). Cells were then batch co-transfected with plasmid vectors (described in the table above) using as Jet-PEI as reagent (Polyplus) following the protocol specified below.
The 6 mL-transfection mix was transferred in a T225 flask. HEK293 cells were then added at a concentration of 12 Millions of cells for 54 mL of medium (DMEM comprising 10% FBS and 1% P/S). Cells incubated over-night at 37° C. and under 5% CO2.
This cell-based assay is performed using 384-well Greiner white plates (Reference 781080). After the incubation, cells were rinsed with PBS, trypsinized, centrifuged and resuspended in free-serum DMEM without phenol red (Invitrogen 31053). Cells were counted and adjusted to 0.5 Million per mL and plated at a concentration of 10,000 cells in 20 μL per well. They were incubated a minimum of 4 hours at 37° C. under 5% CO2. Cells were treated with 20 μL of the compound to analyze (concentration of 2× diluted in DMEM without FBS containing a maximum of 1% DMSO) and incubated over-night (18 hours, 37° C. and 5% CO2). Each compound has been tested at 6 different concentrations to depict a dose-effect allowing the measure of biochemical parameters such as EC50 and TOP activation (%).
Cells were incubated 30 minutes with 40 μL/well of Steady Glow (Promega) and luminescence was read with TECAN Genios Pro (100 ms/w). Four experiments were carried out for each compound.
Each compound has been tested at 6 different concentrations to depict a dose-effect allowing the measure of biochemical parameters such as EC50 and TOP activation (%).
The mammalian two-hybrid system (M2H) assay consists herein in studying the ability of compounds according to the invention to activate Rev-Erbalpha in cells and thus modulate the interaction with its corepressor. The interaction of the two proteins is assessed with the help of the Luciferase reporter gene. HEK293 cells were transfected with two gene constructions: Gal4-RE VP16-NCoR and Gal4-Rev-Erbalpha or with Gal4-RE, sVP16-NCoR and Gal4-Rev-Erb beta.
The ability of compounds according to the invention of activating Rev-Erbalpha alpha or Rev-Erb beta was assessed in the described cell-based assay. EC50 and TOP activation (%) were measured.
(In general: Reporter assays use an easily measured gene product as a stand-in for the process of interest.)

Each structure is given as a SMILES string. Counter-ions that a name gives are not always drawn. Where only a bound is given, the exact number is not on record here.

A word on the EC50: it is the concentration that produces a half-maximal response. A high value points to weaker potency. Turning to `FC(F)(F)c1ccc(-c2ccncc2)c(Oc2ccc3nnc(Cl)n3n2)c1` [Cpd.4-79, 3-chloro-6-(2-(pyridin-4-yl)-5-(trifluoromethyl)phenoxy)-[1,2,4]triazolo[4,3-b]pyridazine hydrochloride], the EC50 lay within 1000 to 6000 nM.

On to `COc1ncccc1-c1ccc(C(F)(F)F)cc1Oc1ccc2nnc(Cl)n2n1` [Cpd.4-80, 3-chloro-6-(2-(2-methoxypyridin-3-yl)-5-(trifluoromethyl)phenoxy)-[1,2,4]triazolo[4,3-b]pyridazine hydrochloride], for which the EC50 was in the range of 100 to 1000 nM.

For the compound `COc1ccc(-c2ccc(C(F)(F)F)cc2Oc2ccc3nnc(Cl)n3n2)cn1` [Cpd.4-81, 3-chloro-6-(2-(6-methoxypyridin-3-yl)-5-(trifluoromethyl)phenoxy)-[1,2,4]triazolo[4,3-b]pyridazine], the EC50 fell in the range of 100 to 1000 nM.

For `COc1cncc(-c2ccc(C(F)(F)F)cc2Oc2ccc3nnc(Cl)n3n2)c1` [Cpd.4-82, 3-chloro-6-(2-(5-methoxypyridin-3-yl)-5-(trifluoromethyl)phenoxy)-[1,2,4]triazolo[4,3-b]pyridazine], the EC50 was 1000 to 6000 nM.

The compound `CCOc1ccc(-c2ccc(C(F)(F)F)cc2Oc2ccc3nnc(Cl)n3n2)cn1` [Cpd.4-84, 3-chloro-6-(2-(6-ethoxypyridin-3-yl)-5-(trifluoromethyl)phenoxy)-[1,2,4]triazolo[4,3-b]pyridazine] registered an EC50 of 1000 to 6000 nM.

Consider `Cn1cc(-c2ccc(C(F)(F)F)cc2Oc2ccc3nnc(Cl)n3n2)ccc1=O` [Cpd.4-86, 5-(2-(3-chloro-[1,2,4]triazolo[4,3-b]pyridazin-6-yloxy)-4-(trifluoromethyl)phenyl)-1-methylpyridin-2(1H)-one], for which the EC50 was over 6000 nM and the Emax was over 130%.

`Fc1ccc(-c2ccc(C(F)(F)F)cc2Oc2ccc3nnc(Cl)n3n2)cn1` [Cpd.4-87, 3-chloro-6-(2-(6-fluoropyridin-3-yl)-5-(trifluoromethyl)phenoxy)-[1,2,4]triazolo[4,3-b]pyridazine] came in with an EC50 of 1000 to 6000 nM.

On to `CCCn1cc(-c2ccc(C(F)(F)F)cc2Oc2ccc3nnc(Cl)n3n2)ccc1=O` [Cpd.4-88, 5-(2-(3-chloro-[1,2,4]triazolo[4,3-b]pyridazin-6-yloxy)-4-(trifluoromethyl)phenyl)-1-propylpyridin-2(1H)-one], for which the concentration giving a half-maximal response (EC50) is over 6000 nM and the Emax is over 130%.

As to `CCCCn1cc(-c2ccc(C(F)(F)F)cc2Oc2ccc3nnc(Cl)n3n2)ccc1=O` [Cpd.4-89, 1-butyl-5-(2-(3-chloro-[1,2,4]triazolo[4,3-b]pyridazin-6-yloxy)-4-(trifluoromethyl)phenyl)pyridin-2(1H)-one], the EC50 is over 6000 nM and the Emax is over 130%.

`CCCOc1ccc(-c2ccc(C(F)(F)F)cc2Oc2ccc3nnc(Cl)n3n2)cn1` [Cpd.4-92, 3-chloro-6-(2-(6-propoxypyridin-3-yl)-5-(trifluoromethyl)phenoxy)-[1,2,4]triazolo[4,3-b]pyridazine hydrochloride]: the EC50 is over 6000 nM and the Emax was over 130%.

On to `Oc1cncc(-c2ccc(C(F)(F)F)cc2Oc2ccc3nnc(Cl)n3n2)c1` [Cpd.4-96, 5-(2-(3-chloro-[1,2,4]triazolo[4,3-b]pyridazin-6-yloxy)-4-(trifluoromethyl)phenyl)pyridin-3-ol], for which the EC50 was over 6000 nM and the Emax was over 130%.

Regarding `FC(F)(F)c1ccc(-c2ccccn2)c(Oc2ccc3nnc(Cl)n3n2)c1` [Cpd.4-97, 3-chloro-6-(2-(pyridin-2-yl)-5-(trifluoromethyl)phenoxy)-[1,2,4]triazolo[4,3-b]pyridazine hydrochloride], the EC50 lay within 1000 to 6000 nM.

For the compound `Clc1nnc2ccc(Oc3ccccc3-c3cccnc3)nn12` [Cpd.4-98, 3-chloro-6-(2-(pyridin-3-yl)phenoxy)-[1,2,4]triazolo[4,3-b]pyridazine hydrochloride], the EC50 was over 6000 nM and the Emax was over 130%.

Compound `COc1ccncc1-c1ccc(C(F)(F)F)cc1Oc1ccc2nnc(Cl)n2n1` [Cpd.4-100, 3-chloro-6-(2-(4-methoxypyridin-3-yl)-5-(trifluoromethyl)phenoxy)-[1,2,4]triazolo[4,3-b]pyridazine] had a half-maximal effective concentration (EC50) of 1000 to 6000 nM.

On to `Clc1nnc2ccc(Oc3ccccc3-c3cscn3)nn12` [Cpd.4-103, 3-chloro-6-(2-(thiazol-4-yl)phenoxy)-[1,2,4]triazolo[4,3-b]pyridazine], for which the EC50 was over 6000 nM and the Emax is over 130%.

As for `Clc1nnc2ccc(Oc3ccccc3-c3nccs3)nn12` [Cpd.4-104, 3-chloro-6-(2-(thiazol-2-yl)phenoxy)-[1,2,4]triazolo[4,3-b]pyridazine], the EC50 is over 6000 nM and the Emax was over 130%.

For the compound `FC(F)(F)c1ccc(-c2nccs2)c(Oc2ccc3nnc(Cl)n3n2)c1` [Cpd.4-105, 3-chloro-6-(2-(thiazol-2-yl)-5-(trifluoromethyl)phenoxy)-[1,2,4]triazolo[4,3-b]pyridazine], the EC50 was in the range of 1000 to 6000 nM.

Compound `FC(F)(F)c1ccc(-c2cscn2)c(Oc2ccc3nnc(Cl)n3n2)c1` [Cpd.4-106, 3-chloro-6-(2-(thiazol-4-yl)-5-(trifluoromethyl)phenoxy)-[1,2,4]triazolo[4,3-b]pyridazine] gave an EC50 of 1000 to 6000 nM.

Take `Fc1ccc(Oc2ccc3nnc(Cl)n3n2)c(-c2cccnc2)c1` [Cpd.4-107, 3-chloro-6-(4-fluoro-2-(pyridin-3-yl)phenoxy)-[1,2,4]triazolo[4,3-b]pyridazine]: the EC50 was over 6000 nM and the Emax was over 130%.

Regarding `Clc1nnc2ccc(Oc3ccccc3-c3ccsc3)nn12` [Cpd.4-108, 3-chloro-6-(2-(thiophen-3-yl)phenoxy)-[1,2,4]triazolo[4,3-b]pyridazine], the EC50 lay within 100 to 1000 nM.

For `Cc1noc(C)c1-c1ccccc1Oc1ccc2nnc(Cl)n2n1` [Cpd.4-109, 3-chloro-6-(2-(3,5-dimethylisoxazol-4-yl)phenoxy)-[1,2,4]triazolo[4,3-b]pyridazine], the EC50 is over 6000 nM and the Emax was over 130%.

Regarding `Clc1nnc2ccc(Oc3ccccc3-c3ccc4scnc4c3)nn12` [Cpd.4-110, 6-(2-(benzo[d]thiazol-5-yl)phenoxy)-3-chloro-[1,2,4]triazolo[4,3-b]pyridazine], the EC50 lay within 100 to 1000 nM.

On to `COc1ccccc1-c1ccccc1Oc1ccc2nnc(Cl)n2n1` [Cpd.4-111, 3-chloro-6-(2′-methoxybiphenyl-2-yloxy)-[1,2,4]triazolo[4,3-b]pyridazine], for which the EC50 lay in the range of 100 to 1000 nM.

`COc1ccc(-c2cccc(F)c2)c(Oc2ccc3nnc(Cl)n3n2)c1` [Cpd.4-112, 3-chloro-6-[(3′-fluoro-4-methoxybiphenyl-2-yl)oxy]-[1,2,4]triazolo[4,3-b]pyridazine] had an EC50 of under 100 nM.

In turn, `Clc1ccc(Oc2ccc(Cl)cc2Oc2ccc3nnc(Cl)n3n2)c(Cl)c1` [Cpd.4-114, 3-chloro-6-[5-chloro-2-(2,4-dichloro-phenoxy)-phenoxy]-[1,2,4]triazolo[4,3-b]pyridazine] came in with an EC50 of 100 to 1000 nM.

On to `Fc1ccc(Oc2ccc3nnc(Cl)n3n2)c(-c2ccccc2F)c1` [Cpd.4-121, 3-chloro-6-(2′,5-difluorobiphenyl-2-yloxy)-[1,2,4]triazolo[4,3-b]pyridazine], for which the EC50 lay in the range of 100 to 1000 nM.
